This is an account of results in ChEMBL document CHEMBL1201862, “PubChem BioAssay data set” (2004).

Activity calls are given as the source filed them.

One data set relates to HeLa. The data set can be described thus: HeLa cell cytotoxicity, dose response, cytotoxicity control for MITF activator project, CellTiter-Glo luminescence, cherry-pick samples (AID 540259). In kind it is functional, cell-based. The note with it: Homo sapiens. For orientation: Cellular ATP, detected with luciferase, serves as a proxy for viable cell number.
A further data set deals with Cytochrome P450 3A4 (Homo sapiens, UniProt P08684).
Chain of Cytochrome P450 3A4 (P08684 whole entry): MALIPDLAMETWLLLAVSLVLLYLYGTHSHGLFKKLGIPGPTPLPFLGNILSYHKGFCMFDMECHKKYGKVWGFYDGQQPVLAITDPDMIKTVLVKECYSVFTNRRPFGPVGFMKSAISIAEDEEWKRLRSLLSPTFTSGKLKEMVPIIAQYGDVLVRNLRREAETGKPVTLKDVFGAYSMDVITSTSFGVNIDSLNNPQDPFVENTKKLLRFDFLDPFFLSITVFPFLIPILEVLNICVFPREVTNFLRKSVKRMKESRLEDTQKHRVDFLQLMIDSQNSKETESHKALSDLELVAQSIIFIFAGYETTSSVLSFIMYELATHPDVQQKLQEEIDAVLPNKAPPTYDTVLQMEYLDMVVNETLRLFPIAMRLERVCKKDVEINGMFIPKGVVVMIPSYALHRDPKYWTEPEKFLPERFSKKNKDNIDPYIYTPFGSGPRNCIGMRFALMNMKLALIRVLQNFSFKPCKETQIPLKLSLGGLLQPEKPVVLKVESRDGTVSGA
The target of the next data set is Beta-galactosidase (Escherichia coli, UniProt Q8VNN2). Kind of data set: PubChem AID 485352. Format: functional.
Chain of Beta-galactosidase (Q8VNN2 whole entry): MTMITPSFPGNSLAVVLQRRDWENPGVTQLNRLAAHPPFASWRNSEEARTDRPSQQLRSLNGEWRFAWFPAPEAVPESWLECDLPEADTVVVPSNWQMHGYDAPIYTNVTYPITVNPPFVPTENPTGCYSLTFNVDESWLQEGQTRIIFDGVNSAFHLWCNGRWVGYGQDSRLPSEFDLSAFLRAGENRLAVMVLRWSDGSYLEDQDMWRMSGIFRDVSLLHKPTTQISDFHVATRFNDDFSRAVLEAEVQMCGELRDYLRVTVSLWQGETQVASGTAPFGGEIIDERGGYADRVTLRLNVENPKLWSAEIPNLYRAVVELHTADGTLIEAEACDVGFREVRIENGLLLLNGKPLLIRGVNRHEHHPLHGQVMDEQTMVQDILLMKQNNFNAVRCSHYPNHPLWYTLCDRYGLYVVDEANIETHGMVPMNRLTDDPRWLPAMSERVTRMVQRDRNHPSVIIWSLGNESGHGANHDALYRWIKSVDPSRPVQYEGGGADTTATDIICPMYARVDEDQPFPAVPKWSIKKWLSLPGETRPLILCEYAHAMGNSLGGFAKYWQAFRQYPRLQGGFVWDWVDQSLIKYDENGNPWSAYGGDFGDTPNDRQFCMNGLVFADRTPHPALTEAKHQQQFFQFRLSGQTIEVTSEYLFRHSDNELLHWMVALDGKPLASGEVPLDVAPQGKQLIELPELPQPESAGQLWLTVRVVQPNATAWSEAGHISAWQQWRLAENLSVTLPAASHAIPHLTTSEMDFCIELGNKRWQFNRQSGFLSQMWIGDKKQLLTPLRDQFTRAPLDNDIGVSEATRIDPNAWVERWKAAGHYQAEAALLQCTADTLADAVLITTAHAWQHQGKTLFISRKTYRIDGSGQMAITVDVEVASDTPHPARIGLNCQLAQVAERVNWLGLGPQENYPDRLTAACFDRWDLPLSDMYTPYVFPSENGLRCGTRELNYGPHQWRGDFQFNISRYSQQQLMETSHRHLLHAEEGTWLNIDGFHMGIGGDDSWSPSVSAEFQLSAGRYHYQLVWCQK
For data set [1], the target named is T1, Type-1 angiotensin II receptor (Homo sapiens, UniProt P30556).
T1 sequence (P30556 whole entry): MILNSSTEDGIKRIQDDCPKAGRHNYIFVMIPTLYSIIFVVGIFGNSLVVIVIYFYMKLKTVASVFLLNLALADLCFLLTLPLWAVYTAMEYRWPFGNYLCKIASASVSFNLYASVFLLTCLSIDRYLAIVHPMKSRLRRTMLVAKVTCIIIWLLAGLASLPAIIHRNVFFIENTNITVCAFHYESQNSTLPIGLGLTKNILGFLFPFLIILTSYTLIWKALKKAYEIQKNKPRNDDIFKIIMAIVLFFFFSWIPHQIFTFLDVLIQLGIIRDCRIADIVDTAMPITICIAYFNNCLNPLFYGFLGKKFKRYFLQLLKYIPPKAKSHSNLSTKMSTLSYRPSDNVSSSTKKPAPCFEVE
The data set can be described thus: AT1 receptor antagonists, dose response, selectivity assay for APJ receptor antagonist project, cell-based, uHTS hits (AID 463214).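 Note: antagonist potency against angiotensin II stimulated AT1 response.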 In kind it is functional.

Data set [2] has as its target Beta-2 adrenergic receptor (Homo sapiens, UniProt P07550). Kind of data set: beta2AR agonists driving receptor internalization, dose response, cell-based, FAP fluorogen, flow cytometry, cherry pick 1 (AID 588763). Format: functional. (Flow cytometry measures light scatter and fluorescence of single cells or particles in a stream.)
The target in data set [3] is T2, Apoptotic protease-activating factor 1 (Homo sapiens, UniProt O14727).
T2 sequence (O14727 whole entry): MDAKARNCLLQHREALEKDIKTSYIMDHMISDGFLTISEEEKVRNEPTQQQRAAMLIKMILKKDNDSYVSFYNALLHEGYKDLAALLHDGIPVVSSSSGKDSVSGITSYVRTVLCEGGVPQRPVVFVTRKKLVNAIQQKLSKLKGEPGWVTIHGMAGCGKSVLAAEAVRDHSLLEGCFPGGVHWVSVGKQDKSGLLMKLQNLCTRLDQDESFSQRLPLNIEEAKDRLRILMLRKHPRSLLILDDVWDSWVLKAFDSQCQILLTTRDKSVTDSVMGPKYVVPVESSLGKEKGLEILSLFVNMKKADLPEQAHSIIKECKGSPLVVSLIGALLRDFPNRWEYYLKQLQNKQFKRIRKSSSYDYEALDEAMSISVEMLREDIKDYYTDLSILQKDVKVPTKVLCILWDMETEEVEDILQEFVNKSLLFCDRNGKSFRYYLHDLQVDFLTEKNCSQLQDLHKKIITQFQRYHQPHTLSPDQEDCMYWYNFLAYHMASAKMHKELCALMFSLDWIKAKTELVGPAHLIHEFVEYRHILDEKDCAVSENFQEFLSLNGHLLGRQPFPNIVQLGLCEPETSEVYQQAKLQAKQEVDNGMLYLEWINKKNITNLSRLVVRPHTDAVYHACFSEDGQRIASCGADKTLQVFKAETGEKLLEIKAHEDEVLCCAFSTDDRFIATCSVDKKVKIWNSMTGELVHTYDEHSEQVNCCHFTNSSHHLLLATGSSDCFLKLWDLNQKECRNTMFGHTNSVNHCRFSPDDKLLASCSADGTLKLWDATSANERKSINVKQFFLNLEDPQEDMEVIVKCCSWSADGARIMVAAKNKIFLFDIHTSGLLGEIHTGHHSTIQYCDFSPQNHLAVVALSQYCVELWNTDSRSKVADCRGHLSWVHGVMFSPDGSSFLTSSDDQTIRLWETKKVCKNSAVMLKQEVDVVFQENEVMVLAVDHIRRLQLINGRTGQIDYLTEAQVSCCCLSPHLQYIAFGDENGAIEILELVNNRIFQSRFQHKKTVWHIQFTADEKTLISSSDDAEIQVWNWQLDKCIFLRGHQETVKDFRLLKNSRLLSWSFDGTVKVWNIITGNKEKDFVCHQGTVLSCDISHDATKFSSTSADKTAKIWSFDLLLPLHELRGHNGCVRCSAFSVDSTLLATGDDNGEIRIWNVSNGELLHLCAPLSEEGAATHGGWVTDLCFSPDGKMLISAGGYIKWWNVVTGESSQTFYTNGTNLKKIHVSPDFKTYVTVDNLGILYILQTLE
Format: functional.

The target in data set [4] is Delta-type opioid receptor (Homo sapiens, UniProt P41143). The data set can be described thus: Counterscreen for agonists of heterodimerization of the mu 1 (OPRM1) and delta 1 (OPRD1) opioid receptors: Luminescence-based cell-based high throughput dose response assay to identify agonists of OPRD1 homodimerization. [Related pubchem assays (depositor defined):AID504326, AID504355, AID504692, AID504904, AID504905]. In kind it is functional. (In general: The purpose of a counterscreen is to sort out artefacts and off-target activity.)
Chain of Delta-type opioid receptor (P41143 whole entry): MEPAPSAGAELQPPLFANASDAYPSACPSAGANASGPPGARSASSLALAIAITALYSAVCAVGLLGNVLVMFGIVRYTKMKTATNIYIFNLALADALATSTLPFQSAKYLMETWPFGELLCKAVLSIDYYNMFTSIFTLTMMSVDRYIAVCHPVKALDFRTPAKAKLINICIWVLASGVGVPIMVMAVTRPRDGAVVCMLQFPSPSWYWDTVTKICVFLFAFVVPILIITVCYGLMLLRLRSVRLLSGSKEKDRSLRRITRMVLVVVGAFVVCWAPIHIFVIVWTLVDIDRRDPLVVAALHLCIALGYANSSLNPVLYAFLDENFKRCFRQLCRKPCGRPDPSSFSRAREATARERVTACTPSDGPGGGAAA

The target in a further data set is Mu-type opioid receptor (Homo sapiens, UniProt P35372). Kind of data set: Counterscreen for agonists of heterodimerization of the mu 1 (OPRM1) and delta 1 (OPRD1) opioid receptors: Luminescence-based cell-based high throughput dose response assay to identify agonists of OPRM1 homodimerization. In kind it is functional.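 Note: U2OS cells expressing OPRM1 and beta-arrestin as split beta-galactosidase partners.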
Chain of Mu-type opioid receptor (P35372 whole entry): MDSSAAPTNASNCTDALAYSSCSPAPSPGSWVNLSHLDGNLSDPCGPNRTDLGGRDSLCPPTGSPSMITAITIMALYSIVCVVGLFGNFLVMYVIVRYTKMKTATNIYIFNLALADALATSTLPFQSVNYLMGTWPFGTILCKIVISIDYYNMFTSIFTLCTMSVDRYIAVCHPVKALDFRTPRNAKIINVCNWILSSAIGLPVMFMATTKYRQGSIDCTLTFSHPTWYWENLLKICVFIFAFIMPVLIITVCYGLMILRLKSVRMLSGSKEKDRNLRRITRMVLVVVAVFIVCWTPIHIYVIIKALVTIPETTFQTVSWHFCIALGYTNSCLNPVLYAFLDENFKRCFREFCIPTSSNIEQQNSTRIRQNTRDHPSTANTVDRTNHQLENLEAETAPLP
The target in data set [5] is 5-hydroxytryptamine receptor 5A (Homo sapiens, UniProt P47898). The data set can be described thus: Counterscreen for agonists of OPRM1-OPRD1 heterodimerization: luminescence-based cell-based high throughput dose response assay to identify agonists of 5-hydroxytryptamine (serotonin) 5A receptor (HTR5A). [Related pubchem assays (depositor defined):AID504326, AID504355, AID504692, AID504904, AID504905]. Format: functional.
Chain of 5-hydroxytryptamine receptor 5A (P47898 whole entry): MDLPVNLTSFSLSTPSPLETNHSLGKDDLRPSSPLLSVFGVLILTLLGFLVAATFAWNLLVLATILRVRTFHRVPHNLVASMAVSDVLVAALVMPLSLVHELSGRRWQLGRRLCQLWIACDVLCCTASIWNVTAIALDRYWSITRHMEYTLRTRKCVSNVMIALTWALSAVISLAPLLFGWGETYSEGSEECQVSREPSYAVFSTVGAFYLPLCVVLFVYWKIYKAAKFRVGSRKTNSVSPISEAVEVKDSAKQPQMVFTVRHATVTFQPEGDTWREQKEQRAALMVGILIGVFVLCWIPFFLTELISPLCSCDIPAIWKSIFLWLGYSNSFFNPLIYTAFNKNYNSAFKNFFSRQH

Data set [6] concerns the target 26S proteasome non-ATPase regulatory subunit 14 (Homo sapiens, UniProt O00487). Kind of data set: inhibition of proteasome subunit RPN11 – biochemical, fluorescence polarization, uHTS hits, confirmation (AID 602368). In kind it is functional.
In data set [7] the target is 72 kDa type IV collagenase (Homo sapiens, UniProt P08253). Kind of data set: Dose Response validation of uHTS RPN11 inhibitor hits using a MMP-2 Fluorescence assay. Format: functional.
Chain of 72 kDa type IV collagenase (P08253 whole entry): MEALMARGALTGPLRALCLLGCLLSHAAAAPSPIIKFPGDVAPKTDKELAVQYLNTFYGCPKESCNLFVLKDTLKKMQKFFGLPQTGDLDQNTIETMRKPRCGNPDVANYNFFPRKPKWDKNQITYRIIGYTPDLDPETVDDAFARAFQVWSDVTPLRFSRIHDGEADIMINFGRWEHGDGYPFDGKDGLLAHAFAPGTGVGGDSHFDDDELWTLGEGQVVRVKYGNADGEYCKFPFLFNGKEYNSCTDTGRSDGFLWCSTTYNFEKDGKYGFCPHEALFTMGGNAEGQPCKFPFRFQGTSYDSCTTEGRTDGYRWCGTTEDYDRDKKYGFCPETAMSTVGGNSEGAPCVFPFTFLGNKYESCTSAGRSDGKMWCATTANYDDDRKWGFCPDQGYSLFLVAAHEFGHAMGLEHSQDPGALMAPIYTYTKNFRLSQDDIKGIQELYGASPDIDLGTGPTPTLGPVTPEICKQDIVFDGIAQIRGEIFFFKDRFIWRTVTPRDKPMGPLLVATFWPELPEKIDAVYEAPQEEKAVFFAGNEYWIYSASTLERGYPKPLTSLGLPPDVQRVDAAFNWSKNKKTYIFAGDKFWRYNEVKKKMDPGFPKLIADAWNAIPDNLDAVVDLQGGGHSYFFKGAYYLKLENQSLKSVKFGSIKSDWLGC
In a further data set the target is Prothrombin (Bos taurus, UniProt P00735). Kind of data set: thrombin inhibition, dose response, biochemical, fluorescence polarization, uHTS hits (AID 602369). In kind it is functional.
The next data set has as its target T3, Caspase-3 (Homo sapiens, UniProt P42574).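 Note: Dose-response selectivity test against caspase-3 for candidate inhibitors of sentrin-specific proteases (SENPs).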
T3 sequence (P42574 whole entry): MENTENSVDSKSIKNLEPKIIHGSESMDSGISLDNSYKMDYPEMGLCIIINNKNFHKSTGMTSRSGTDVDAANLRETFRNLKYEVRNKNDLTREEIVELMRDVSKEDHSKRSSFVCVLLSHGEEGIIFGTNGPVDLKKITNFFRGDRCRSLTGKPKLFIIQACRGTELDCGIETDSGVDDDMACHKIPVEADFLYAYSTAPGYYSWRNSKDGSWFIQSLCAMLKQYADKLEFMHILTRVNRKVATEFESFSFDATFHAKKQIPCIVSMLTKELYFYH
Format: functional.

Data set [8] concerns the target T4, Sentrin-specific protease 7 (Homo sapiens, UniProt Q9BQF6).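 Note: Luminescence-based dose-response confirmation of ultra-high-throughput screening hits, measuring inhibition of SENP7.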
T4 sequence (Q9BQF6 whole entry): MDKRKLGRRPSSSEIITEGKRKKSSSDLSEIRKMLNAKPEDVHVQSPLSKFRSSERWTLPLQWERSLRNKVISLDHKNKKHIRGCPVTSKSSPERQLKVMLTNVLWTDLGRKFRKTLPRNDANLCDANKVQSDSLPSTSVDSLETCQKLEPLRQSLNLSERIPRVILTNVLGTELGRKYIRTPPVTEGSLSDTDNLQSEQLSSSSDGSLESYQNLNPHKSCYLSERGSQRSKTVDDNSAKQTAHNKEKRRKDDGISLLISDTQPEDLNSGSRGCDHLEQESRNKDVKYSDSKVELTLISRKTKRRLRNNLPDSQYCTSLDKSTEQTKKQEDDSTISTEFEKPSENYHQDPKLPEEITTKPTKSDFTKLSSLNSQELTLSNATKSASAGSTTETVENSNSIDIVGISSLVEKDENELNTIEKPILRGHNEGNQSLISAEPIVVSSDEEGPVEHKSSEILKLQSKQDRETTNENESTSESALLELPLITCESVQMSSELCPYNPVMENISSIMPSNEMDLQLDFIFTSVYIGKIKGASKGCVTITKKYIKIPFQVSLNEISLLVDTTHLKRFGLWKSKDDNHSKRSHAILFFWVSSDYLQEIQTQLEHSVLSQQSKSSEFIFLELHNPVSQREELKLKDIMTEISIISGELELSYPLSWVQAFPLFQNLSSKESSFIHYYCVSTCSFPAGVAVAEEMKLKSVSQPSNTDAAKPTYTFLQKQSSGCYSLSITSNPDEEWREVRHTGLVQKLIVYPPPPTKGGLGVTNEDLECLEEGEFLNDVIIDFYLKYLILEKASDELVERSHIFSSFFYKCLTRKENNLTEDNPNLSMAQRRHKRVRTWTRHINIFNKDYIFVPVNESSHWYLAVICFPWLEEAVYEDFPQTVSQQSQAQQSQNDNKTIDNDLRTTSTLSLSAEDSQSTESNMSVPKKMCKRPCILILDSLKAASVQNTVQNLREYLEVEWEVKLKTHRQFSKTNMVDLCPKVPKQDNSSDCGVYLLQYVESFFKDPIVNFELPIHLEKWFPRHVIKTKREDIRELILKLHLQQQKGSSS
In kind it is functional.

For data set [9], the target named is T5, Sentrin-specific protease 6 (Homo sapiens, UniProt Q9GZR1).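 Note: Luminescence-based dose-response confirmatory assay of SENP6 inhibition, following up an ultra-high-throughput screen.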
T5 sequence (Q9GZR1 whole entry): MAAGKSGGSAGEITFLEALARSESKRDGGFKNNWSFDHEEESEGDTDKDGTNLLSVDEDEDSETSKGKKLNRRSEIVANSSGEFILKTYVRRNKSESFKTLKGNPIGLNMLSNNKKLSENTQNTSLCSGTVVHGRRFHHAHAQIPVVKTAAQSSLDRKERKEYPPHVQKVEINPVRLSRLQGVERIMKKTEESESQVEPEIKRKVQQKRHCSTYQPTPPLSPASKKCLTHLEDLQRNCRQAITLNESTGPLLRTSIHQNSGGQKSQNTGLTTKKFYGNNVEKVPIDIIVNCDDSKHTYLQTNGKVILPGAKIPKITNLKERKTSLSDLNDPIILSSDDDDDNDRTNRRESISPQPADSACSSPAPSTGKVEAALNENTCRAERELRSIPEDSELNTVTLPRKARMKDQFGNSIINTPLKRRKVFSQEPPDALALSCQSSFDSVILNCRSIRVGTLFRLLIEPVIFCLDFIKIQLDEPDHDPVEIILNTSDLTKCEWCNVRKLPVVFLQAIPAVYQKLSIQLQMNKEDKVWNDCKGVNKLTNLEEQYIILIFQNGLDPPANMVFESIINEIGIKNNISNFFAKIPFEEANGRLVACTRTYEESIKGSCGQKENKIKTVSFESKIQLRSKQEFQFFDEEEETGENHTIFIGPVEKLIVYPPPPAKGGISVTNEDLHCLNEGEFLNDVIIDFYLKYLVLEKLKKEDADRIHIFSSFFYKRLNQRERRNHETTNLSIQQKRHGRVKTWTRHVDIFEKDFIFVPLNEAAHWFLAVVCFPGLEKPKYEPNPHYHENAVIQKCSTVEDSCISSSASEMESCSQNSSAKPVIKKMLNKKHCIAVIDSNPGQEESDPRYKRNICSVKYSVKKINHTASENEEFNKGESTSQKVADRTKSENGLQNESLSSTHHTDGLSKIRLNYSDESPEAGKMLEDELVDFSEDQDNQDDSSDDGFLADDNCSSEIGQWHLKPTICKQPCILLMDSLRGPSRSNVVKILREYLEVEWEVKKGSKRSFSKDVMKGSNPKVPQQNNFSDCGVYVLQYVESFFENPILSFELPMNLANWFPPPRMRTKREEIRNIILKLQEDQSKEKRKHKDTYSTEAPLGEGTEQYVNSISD
Format: functional.

The target of data set [10] is T6, Sentrin-specific protease 8 (Homo sapiens, UniProt Q96LD8).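 Note: luminescence read-out of SENP8 inhibition, dose-response confirmation following an ultra-high-throughput screen.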
T6 sequence (Q96LD8 whole entry): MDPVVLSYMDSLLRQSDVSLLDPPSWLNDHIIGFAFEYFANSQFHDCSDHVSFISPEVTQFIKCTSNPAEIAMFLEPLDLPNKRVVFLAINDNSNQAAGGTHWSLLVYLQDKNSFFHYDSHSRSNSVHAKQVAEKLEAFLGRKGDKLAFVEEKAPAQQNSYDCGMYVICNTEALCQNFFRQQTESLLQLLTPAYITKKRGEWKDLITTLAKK
In kind it is functional.

Chain of Beta-2 adrenergic receptor (P07550 whole entry): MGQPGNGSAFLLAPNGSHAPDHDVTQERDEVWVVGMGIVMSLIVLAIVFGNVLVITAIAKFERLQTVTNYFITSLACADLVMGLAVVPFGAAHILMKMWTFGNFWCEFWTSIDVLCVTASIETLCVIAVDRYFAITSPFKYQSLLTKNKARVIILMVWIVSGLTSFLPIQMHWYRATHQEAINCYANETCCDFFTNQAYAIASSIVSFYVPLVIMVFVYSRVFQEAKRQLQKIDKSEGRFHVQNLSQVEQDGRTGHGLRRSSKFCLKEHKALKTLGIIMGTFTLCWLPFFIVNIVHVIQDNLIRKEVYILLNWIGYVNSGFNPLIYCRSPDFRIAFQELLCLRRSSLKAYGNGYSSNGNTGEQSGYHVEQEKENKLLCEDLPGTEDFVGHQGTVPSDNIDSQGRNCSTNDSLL
Chain of 26S proteasome non-ATPase regulatory subunit 14 (O00487 whole entry): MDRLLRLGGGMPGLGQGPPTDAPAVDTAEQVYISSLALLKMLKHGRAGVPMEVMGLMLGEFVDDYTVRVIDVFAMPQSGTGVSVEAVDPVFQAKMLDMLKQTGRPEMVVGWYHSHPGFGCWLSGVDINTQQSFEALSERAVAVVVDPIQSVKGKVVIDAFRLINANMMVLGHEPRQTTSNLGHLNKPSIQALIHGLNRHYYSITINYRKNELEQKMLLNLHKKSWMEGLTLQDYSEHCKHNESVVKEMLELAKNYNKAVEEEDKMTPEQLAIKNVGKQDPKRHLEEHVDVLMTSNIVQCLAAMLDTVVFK

One may read the AC50 as the concentration giving half of the maximal activity seen. As for `CSc1ccc(CNc2ccc(Cl)cc2)cc1`, the AC50 in the data set on HeLa was 56.4 µM (active); on Cytochrome P450 3A4, “inconclusive”.

For orientation: EC50 means the concentration at which the effect is half-maximal. The IC50 is the point on the concentration scale where inhibition reaches its midpoint. Turning to `O=C1N=c2ccc(Br)cc2=C1Nc1ccc(-c2nnc3n2CCCCC3)cc1`, the EC50 at Beta-galactosidase is > 40 µM (inactive). Moreover, in data set [1], the concentration for half-maximal inhibition (IC50) is 29.4 µM (not active).

Turning to `Cc1nn2cc(-c3ccc(Cl)cc3)cnc2c1Cl`, the AC50 with HeLa is 108 µM (active).

As to `c1ccc(CSc2nnnn2-c2cccc3ccccc23)nc1`, in [2], the half-maximal effective concentration (EC50) is 1.22 µM (active).

For the compound `Cc1cc(N2CCN(c3ccc([N+](=O)[O-])c4cccnc34)CC2)c2ccccc2n1`, the half-maximal inhibitory concentration (IC50) in data set [3] was 34 µM (active); in data set [6], 27.7 µM (active); in data set [7], > 100 µM (inactive); at Prothrombin it was 27.7 µM (active). Besides, the EC50 (in data set [4]; at Mu-type opioid receptor; in [5]) was > 92.5 µM (inactive) each time.

As for `Cc1ccc(N=C2C(=O)Nc3ccc(Br)cc32)cc1`, at Beta-galactosidase, the EC50 was > 40 µM (inactive). The IC50 in data set [1] was 7.76 µM (active).

With `N#Cc1ccccc1COC(=O)c1ccc2c(c1)OCCO2`, the IC50 at Caspase-3 was 19.9 µM (active); in data set [8], 8.48 µM (active); in data set [9], 22.5 µM (active); in [10] it was 27.5 µM (active).

In the case of `COc1ccc([C@H](C)NC[C@H](O)c2ccc(O)c(NC=O)c2)cc1`, the EC50 in data set [2] is 0.0108 µM (active).
